# Reference: patent publication US10004701B2, “Methods and compositions for treating infection” (UNIVERSITY OF ROCHESTER, priority 2012, dated 2018)
# Where a name gives a salt, the structure may show the parent alone. Read-outs that look alike come from different tables or passages of the source.
# What was measured:
# Assay in all cases: AK assay 384-well format, Prestwick library screening
# [1] = system: A. baumannii strain 98-37-09; format: cell-based, Acinetobacter baumannii; conditions: 50 μM final drug concentration; for fold induction at 50 µM: Acinetobacter baumannii, 983709, 3 h
# P. aeruginosa = format: cell-based, Pseudomonas aeruginosa; conditions: 50 μM final drug concentration; for fold induction at 50 µM: Pseudomonas aeruginosa, 3 h
# [2] = system: S. aureus strain USA300-0114; format: cell-based, Staphylococcus aureus; conditions: 50 μM final drug concentration; for fold induction at 50 µM: Staphylococcus aureus, USA300, 3 h
# E. faecium = format: cell-based, Enterococcus faecium; conditions: 50 μM final drug concentration; for fold induction at 50 µM: Enterococcus faecium, 3 h
# E. cloacae = format: cell-based, Enterobacter cloacae; conditions: 50 μM final drug concentration; for fold induction at 50 µM: Enterobacter cloacae, 3 h
# E. coli = format: cell-based, Escherichia coli; conditions: 50 μM final drug concentration; for fold induction at 50 µM: Escherichia coli, 3 h
# K. pneumoniae = format: cell-based, Klebsiella pneumoniae; conditions: 50 μM final drug concentration; for fold induction at 50 µM: Klebsiella pneumoniae, 3 h
# [3] = planktonic A. baumannii, 384-well, cutoff for positive-scoring molecules 3-fold increase, read-out: AK-based Prestwick Library Screening Results: A. baumannii (increase in extracellular AK activity)
# [4] = planktonic P. aeruginosa, 384-well, cutoff for positive-scoring molecules 3-fold increase, read-out: AK-based Prestwick Library Screening Results: P. aeruginosa (increase in extracellular AK activity)
# [5] = planktonic S. aureus, 384-well, cutoff for positive-scoring molecules 3-fold increase, read-out: AK-based Prestwick Library Screening Results: S. aureus (increase in extracellular AK activity)
# [6] = planktonic E. faecium, 384-well, cutoff for positive-scoring molecules 3-fold increase, read-out: AK-based Prestwick Library Screening Results: E. faecium (increase in extracellular AK activity)
# [7] = planktonic E. cloacae, 384-well, cutoff for positive-scoring molecules 3-fold increase, read-out: AK-based Prestwick Library Screening Results: E. cloacae (increase in extracellular AK activity)
# [8] = planktonic E. coli, 384-well, cutoff for positive-scoring molecules 3-fold increase, read-out: AK-based Prestwick Library Screening Results: E. coli (increase in extracellular AK activity)
# [9] = planktonic K. pneumoniae, 384-well, cutoff for positive-scoring molecules 3-fold increase, read-out: AK-based Prestwick Library Screening Results: K. pneumoniae (increase in extracellular AK activity)
# [10] = planktonic E. coli, 384-well, […], read-out: AK-based Prestwick Library Screening Results: E. coli (increase in extracellular AK activity)
# [11] = planktonic, cutoff for positive-scoring molecules 3-fold increase
compound,measurement,setting,value
COc1cc(NS(=O)(=O)c2ccc(N)cc2)ncn1 [Sulfamonomethoxine],fold induction at 50 µM,"[1]; planktonic, cutoff for positive-scoring molecules 3-fold increase, read-out: AK-based Prestwick Library Screening Results, A. baumannii (fold increase in extracellular AK activity)",1.6
same,fold induction at 50 µM,"P. aeruginosa; planktonic, cutoff for positive-scoring molecules 3-fold increase, read-out: AK-based Prestwick Library Screening Results, P. aeruginosa (fold increase in extracellular AK activity)",1
same,fold induction at 50 µM,"[2]; planktonic, cutoff for positive-scoring molecules 3-fold increase, read-out: AK-based Prestwick Library Screening Results, S. aureus (fold increase in extracellular AK activity)",0.7
same,fold induction at 50 µM,"E. faecium; planktonic, cutoff for positive-scoring molecules 3-fold increase, read-out: AK-based Prestwick Library Screening Results, E. faecium (fold increase in extracellular AK activity)",0.9
same,fold induction at 50 µM,"E. cloacae; planktonic, cutoff for positive-scoring molecules 3-fold increase, read-out: AK-based Prestwick Library Screening Results, E. cloacae (fold increase in extracellular AK activity)",1.1
same,fold induction at 50 µM,"E. coli; planktonic, cutoff for positive-scoring molecules 3-fold increase, read-out: AK-based Prestwick Library Screening Results, E. coli (fold increase in extracellular AK activity)",0.9
same,fold induction at 50 µM,"K. pneumoniae; planktonic, cutoff for positive-scoring molecules 3-fold increase, read-out: AK-based Prestwick Library Screening Results, K. pneumoniae (fold increase in extracellular AK activity)",0.8
COC1=C[C@@H]2C3=C([C@@H]2C1=O)[C@@H](NC(C)=O)CCc1cc(OC)c(OC)c(OC)c13 [Lumicolchicine gamma],"AK-based Prestwick Library Screening Results, A. baumannii (fold increase in extracellular AK activity)","[1]; planktonic, […]",1.2
same,"AK-based Prestwick Library Screening Results, P. aeruginosa (fold increase in extracellular AK activity)","P. aeruginosa; planktonic, […]",1.1
same,"AK-based Prestwick Library Screening Results, S. aureus (fold increase in extracellular AK activity)","[2]; planktonic, […]",0.9
same,"AK-based Prestwick Library Screening Results, E. faecium (fold increase in extracellular AK activity)","E. faecium; planktonic, […]",1.0
same,"AK-based Prestwick Library Screening Results, E. cloacae (fold increase in extracellular AK activity)","E. cloacae; planktonic, […]",1.4
same,"AK-based Prestwick Library Screening Results, E. coli (fold increase in extracellular AK activity)","E. coli; planktonic, […]",1.1
same,"AK-based Prestwick Library Screening Results, K. pneumoniae (fold increase in extracellular AK activity)","K. pneumoniae; planktonic, […]",1.0
Cc1cc(-c2ccccc2)nnc1NCCN1CCOCC1 [Minaprine dihydrochloride],fold induction at 50 µM,[1]; [3],1.3
same,fold induction at 50 µM,P. aeruginosa; [4],1.1
same,fold induction at 50 µM,[2]; [5],1
same,fold induction at 50 µM,E. faecium; [6],0.8
same,fold induction at 50 µM,E. cloacae; [7],1.3
same,fold induction at 50 µM,E. coli; [8],1.3
same,fold induction at 50 µM,K. pneumoniae; [9],0.9
CC(C)(C)NC[C@H](O)COc1ccccc1C1CCCC1 [Penbutolol sulfate],fold induction at 50 µM,"[1]; cutoff for positive-scoring molecules 3-fold increase, read-out: AK-based Prestwick Library Screening Results, A. baumannii (fold increase in extracellular AK activity)",0.4
same,fold induction at 50 µM,"P. aeruginosa; cutoff for positive-scoring molecules 3-fold increase, read-out: AK-based Prestwick Library Screening Results, P. aeruginosa (fold increase in extracellular AK activity)",0.5
same,fold induction at 50 µM,"[2]; cutoff for positive-scoring molecules 3-fold increase, read-out: AK-based Prestwick Library Screening Results, S. aureus (fold increase in extracellular AK activity)",0.4
same,fold induction at 50 µM,"E. faecium; cutoff for positive-scoring molecules 3-fold increase, read-out: AK-based Prestwick Library Screening Results, E. faecium (fold increase in extracellular AK activity)",0.8
same,fold induction at 50 µM,"E. cloacae; cutoff for positive-scoring molecules 3-fold increase, read-out: AK-based Prestwick Library Screening Results, E. cloacae (fold increase in extracellular AK activity)",0.4
same,fold induction at 50 µM,"E. coli; cutoff for positive-scoring molecules 3-fold increase, read-out: AK-based Prestwick Library Screening Results, E. coli (fold increase in extracellular AK activity)",0.5
same,fold induction at 50 µM,"K. pneumoniae; cutoff for positive-scoring molecules 3-fold increase, read-out: AK-based Prestwick Library Screening Results, K. pneumoniae (fold increase in extracellular AK activity)",0.5
CCc1cccc2c3c([nH]c12)C(CC)(CC(=O)O)OCC3 (centres unmarked) [Etodolac],fold induction at 50 µM,[1]; [3],1.4
same,fold induction at 50 µM,P. aeruginosa; [4],1.5
same,fold induction at 50 µM,[2]; [5],1
same,fold induction at 50 µM,E. faecium; [6],1.1
same,fold induction at 50 µM,E. cloacae; [7],1.2
same,fold induction at 50 µM,E. coli; [10],1.2
same,fold induction at 50 µM,K. pneumoniae; [9],1.3
Cc1ccsc1/C=C/C1=NCCCN1C [Morantel tartrate],fold induction at 50 µM,"[1]; planktonic A. baumannii, 384-well, […], read-out: AK-based Prestwick Library Screening Results: A. baumannii (increase in extracellular AK activity)",1.1
same,fold induction at 50 µM,"P. aeruginosa; planktonic P. aeruginosa, 384-well, […], read-out: AK-based Prestwick Library Screening Results: P. aeruginosa (increase in extracellular AK activity)",1.2
same,fold induction at 50 µM,"[2]; planktonic S. aureus, 384-well, […], read-out: AK-based Prestwick Library Screening Results: S. aureus (increase in extracellular AK activity)",1.2
same,fold induction at 50 µM,"E. faecium; planktonic E. faecium, 384-well, […], read-out: AK-based Prestwick Library Screening Results: E. faecium (increase in extracellular AK activity)",0.8
same,fold induction at 50 µM,"E. cloacae; planktonic E. cloacae, 384-well, […], read-out: AK-based Prestwick Library Screening Results: E. cloacae (increase in extracellular AK activity)",1.3
same,fold induction at 50 µM,E. coli; [10],1.4
same,fold induction at 50 µM,"K. pneumoniae; planktonic K. pneumoniae, 384-well, […], read-out: AK-based Prestwick Library Screening Results: K. pneumoniae (increase in extracellular AK activity)",0.9
CCCCN1CCCCC1C(=O)Nc1c(C)cccc1C (centres unmarked) [Bupivacaine hydrochloride],fold induction at 50 µM,[1]; [3],1.4
same,fold induction at 50 µM,P. aeruginosa; [4],1.2
same,fold induction at 50 µM,[2]; [5],1.1
same,fold induction at 50 µM,E. faecium; [6],1
same,fold induction at 50 µM,E. cloacae; [7],1.5
same,fold induction at 50 µM,E. coli; [8],1.3
same,fold induction at 50 µM,K. pneumoniae; [9],1
Dihydroergotoxine mesylate,"AK-based Prestwick Library Screening Results, A. baumannii (increase in extracellular AK activity)","[1]; planktonic A. baumannii, cutoff for positive-scoring molecules 3-fold increase",0.5
same,"AK-based Prestwick Library Screening Results, P. aeruginosa (increase in extracellular AK activity)","P. aeruginosa; planktonic P. aeruginosa, cutoff for positive-scoring molecules 3-fold increase",0.4
same,"AK-based Prestwick Library Screening Results, S. aureus (increase in extracellular AK activity)","[2]; planktonic S. aureus, cutoff for positive-scoring molecules 3-fold increase",0.4
same,"AK-based Prestwick Library Screening Results, E. faecium (increase in extracellular AK activity)","E. faecium; planktonic E. faecium, cutoff for positive-scoring molecules 3-fold increase",0.8
same,"AK-based Prestwick Library Screening Results, E. cloacae (increase in extracellular AK activity)","E. cloacae; planktonic E. cloacae, cutoff for positive-scoring molecules 3-fold increase",0.6
same,"AK-based Prestwick Library Screening Results, E. coli (increase in extracellular AK activity)","E. coli; planktonic E. coli, cutoff for positive-scoring molecules 3-fold increase",0.6
same,"AK-based Prestwick Library Screening Results, K. pneumoniae (increase in extracellular AK activity)","K. pneumoniae; planktonic K. pneumoniae, cutoff for positive-scoring molecules 3-fold increase",0.5
C=CCc1ccccc1OCC(O)CNC(C)C (centres unmarked) [Alprenolol hydrochloride],fold induction at 50 µM,"[1]; 384-well format, cutoff for positive-scoring molecules 3-fold increase, read-out: AK-based Prestwick Library Screening Results, A. baumannii (increase in extracellular AK activity)",0.7
same,fold induction at 50 µM,"P. aeruginosa; 384-well format, cutoff for positive-scoring molecules 3-fold increase, read-out: AK-based Prestwick Library Screening Results, P. aeruginosa (increase in extracellular AK activity)",0.5
same,fold induction at 50 µM,"[2]; 384-well format, cutoff for positive-scoring molecules 3-fold increase, read-out: AK-based Prestwick Library Screening Results, S. aureus (increase in extracellular AK activity)",0.6
same,fold induction at 50 µM,"E. faecium; 384-well format, cutoff for positive-scoring molecules 3-fold increase, read-out: AK-based Prestwick Library Screening Results, E. faecium (increase in extracellular AK activity)",0.9
same,fold induction at 50 µM,"E. cloacae; 384-well format, cutoff for positive-scoring molecules 3-fold increase, read-out: AK-based Prestwick Library Screening Results, E. cloacae (increase in extracellular AK activity)",0.4
same,fold induction at 50 µM,"E. coli; 384-well format, cutoff for positive-scoring molecules 3-fold increase, read-out: AK-based Prestwick Library Screening Results, E. coli (increase in extracellular AK activity)",0.6
same,fold induction at 50 µM,"K. pneumoniae; 384-well format, cutoff for positive-scoring molecules 3-fold increase, read-out: AK-based Prestwick Library Screening Results, K. pneumoniae (increase in extracellular AK activity)",0.5
CCC[C@@H]1C[C@@H](C(=O)N[C@@H]([C@H]2O[C@H](SC)[C@H](O)[C@@H](O)[C@H]2O)[C@H](C)Cl)N(C)C1 [Clindamycin hydrochloride],fold induction at 50 µM,[1]; [3],1
same,fold induction at 50 µM,P. aeruginosa; [4],1.1
same,fold induction at 50 µM,[2]; [5],8.4
same,fold induction at 50 µM,E. faecium; [6],1.2
same,fold induction at 50 µM,E. cloacae; [7],1.7
same,fold induction at 50 µM,E. coli; [8],0.8
same,fold induction at 50 µM,K. pneumoniae; [9],0.5
"O.Oc1cc(O)c2c(c1)OC(c1ccc(O)c(O)c1)C(O)C2 (racemic) [Catechin-(+,−) hydrate]","AK-based Prestwick Library Screening Results, A. baumannii (fold increase in extracellular AK activity)",[1]; [11],0.7
same,"AK-based Prestwick Library Screening Results, P. aeruginosa (fold increase in extracellular AK activity)",P. aeruginosa; [11],0.6
same,"AK-based Prestwick Library Screening Results, S. aureus (fold increase in extracellular AK activity)",[2]; [11],0.7
same,"AK-based Prestwick Library Screening Results, E. faecium (fold increase in extracellular AK activity)",E. faecium; [11],0.9
same,"AK-based Prestwick Library Screening Results, E. cloacae (fold increase in extracellular AK activity)",E. cloacae; [11],1.0
same,"AK-based Prestwick Library Screening Results, E. coli (fold increase in extracellular AK activity)",E. coli; [11],0.7
same,"AK-based Prestwick Library Screening Results, K. pneumoniae (fold increase in extracellular AK activity)",K. pneumoniae; [11],0.6
